In ChEMBL document CHEMBL1201862, “PubChem BioAssay data set” (2004):
Values belong to the compound of their own block, whether it stands above or below them. Activity calls are given as the source filed them.

Tests used:
[1] = viability inhibitors of stage V gametocytes – luminescence, dose response (AID 1117278); format: functional, cell-based;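 also: gametocytes exposed to compound for 24 hours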
[2] = biological target: T1, Microphthalmia-associated transcription factor (Homo sapiens, UniProt O75030); assay: reducers of TRPM1 reporter luminescence, concentration series – cell-based, SK-MEL-5, cherry-picked, set 3, MITF inhibitor project, dose response (AID 493073); format: functional;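 also: SK-MEL-5 melanoma cells with luciferase driven by the MITF target TRPM1 promoter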
T1 sequence (O75030 whole entry): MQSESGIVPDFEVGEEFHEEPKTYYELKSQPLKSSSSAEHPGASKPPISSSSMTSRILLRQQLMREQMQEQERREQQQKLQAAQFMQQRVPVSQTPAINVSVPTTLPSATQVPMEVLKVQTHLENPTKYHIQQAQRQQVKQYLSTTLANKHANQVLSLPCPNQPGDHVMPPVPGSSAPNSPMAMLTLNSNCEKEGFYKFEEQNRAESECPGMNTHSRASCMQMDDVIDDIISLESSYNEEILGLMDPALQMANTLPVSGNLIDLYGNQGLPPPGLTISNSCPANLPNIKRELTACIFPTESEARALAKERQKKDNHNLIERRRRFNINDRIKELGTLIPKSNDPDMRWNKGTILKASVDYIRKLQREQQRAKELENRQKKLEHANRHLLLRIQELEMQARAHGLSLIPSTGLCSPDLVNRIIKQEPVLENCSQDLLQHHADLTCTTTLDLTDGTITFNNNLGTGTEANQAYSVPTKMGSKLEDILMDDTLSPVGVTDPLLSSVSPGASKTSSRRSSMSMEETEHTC

[3] = test system: INS1; assay: INS-1E survival protection against cytokine death – cell-based, luminescence, retest, dose response (AID 449756); format: functional; settings: Rattus norvegicus;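 also: cell death triggered by IL-1 beta plus TNF-alpha plus IFN-gamma mixture; protective hits raise ATP signal compared with cytokine alone wells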
[4] = concentration-dependent intrinsic compound fluorescence, S. cerevisiae AD/pABC3, flow cytometry, Cherry Pick1 hits, artefact control for antifungal efflux pump inhibitor project, dose response (AID 588620); format: functional
[5] = biological target: Protein Wnt-3a (Mus musculus, UniProt P27467); assay: antagonism of Wnt3a pathway luciferase reporter – Wnt-LIGHT cells, luminescence, selectivity assay for Gli-SUFU antagonist project, dose response (AID 651570); format: functional; settings: read-out: IC50_Mean;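 also: Wnt-LIGHT reporter cells stimulated with conditioned medium from Wnt3a-producing cells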
Sequence of Protein Wnt-3a (P27467 whole entry): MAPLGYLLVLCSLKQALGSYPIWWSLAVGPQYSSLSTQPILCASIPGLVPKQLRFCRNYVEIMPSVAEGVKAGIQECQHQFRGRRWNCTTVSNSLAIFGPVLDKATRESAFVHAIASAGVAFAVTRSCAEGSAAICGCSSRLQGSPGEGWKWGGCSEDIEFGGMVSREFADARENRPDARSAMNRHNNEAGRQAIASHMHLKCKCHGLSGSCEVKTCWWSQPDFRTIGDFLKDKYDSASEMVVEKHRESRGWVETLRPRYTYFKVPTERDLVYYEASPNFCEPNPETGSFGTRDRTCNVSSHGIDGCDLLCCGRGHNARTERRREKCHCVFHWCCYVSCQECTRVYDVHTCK

[6] = viability loss in human Jurkat cells – cell-based, luminescence, cytotoxicity control for P. falciparum gametocyte viability project, dose response (AID 1117277); format: functional;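 also: potency reflects loss of cellular ATP meaning fewer viable cells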
[7] = test system: Candida albicans; assay: Candida growth effect without fluconazole – C. albicans CaCi-2, dry powder, counter-screen for antifungal drug resistance project, dose response (AID 488802); format: functional, organism-based
[8] = biological target: T2, Caspase-3 (Homo sapiens, UniProt P42574); assay: inhibition of recombinant caspase-3 activity – biochemical, luminescence, set 2, selectivity assay for SENP protease inhibitor project, SAR follow-up (AID 588599); format: functional
T2 sequence (P42574 whole entry): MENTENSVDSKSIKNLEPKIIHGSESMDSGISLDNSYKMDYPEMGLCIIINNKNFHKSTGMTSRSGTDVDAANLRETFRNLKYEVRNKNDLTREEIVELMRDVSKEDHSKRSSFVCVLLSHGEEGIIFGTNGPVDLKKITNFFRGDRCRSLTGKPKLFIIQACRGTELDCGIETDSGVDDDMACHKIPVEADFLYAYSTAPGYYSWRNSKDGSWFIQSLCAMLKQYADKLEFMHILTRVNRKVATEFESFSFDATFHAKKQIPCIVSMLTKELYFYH

[9] = biological target: T3, Sentrin-specific protease 8 (Homo sapiens, UniProt Q96LD8); assay: inhibition of sentrin protease 8 – biochemical, luminescence, set 2, SAR follow-up (AID 588601); format: functional
T3 sequence (Q96LD8 whole entry): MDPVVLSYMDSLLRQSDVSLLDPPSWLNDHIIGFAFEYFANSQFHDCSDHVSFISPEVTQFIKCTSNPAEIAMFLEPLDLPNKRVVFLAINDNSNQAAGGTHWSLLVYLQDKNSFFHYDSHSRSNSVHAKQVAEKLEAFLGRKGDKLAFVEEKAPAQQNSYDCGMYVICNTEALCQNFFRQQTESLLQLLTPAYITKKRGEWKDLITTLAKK

[10] = biological target: T4, Sentrin-specific protease 6 (Homo sapiens, UniProt Q9GZR1); assay: inhibition of human SENP6 catalytic domain – biochemical, luminescence, set 2, SAR follow-up (AID 588598); format: functional
T4 sequence (Q9GZR1 whole entry): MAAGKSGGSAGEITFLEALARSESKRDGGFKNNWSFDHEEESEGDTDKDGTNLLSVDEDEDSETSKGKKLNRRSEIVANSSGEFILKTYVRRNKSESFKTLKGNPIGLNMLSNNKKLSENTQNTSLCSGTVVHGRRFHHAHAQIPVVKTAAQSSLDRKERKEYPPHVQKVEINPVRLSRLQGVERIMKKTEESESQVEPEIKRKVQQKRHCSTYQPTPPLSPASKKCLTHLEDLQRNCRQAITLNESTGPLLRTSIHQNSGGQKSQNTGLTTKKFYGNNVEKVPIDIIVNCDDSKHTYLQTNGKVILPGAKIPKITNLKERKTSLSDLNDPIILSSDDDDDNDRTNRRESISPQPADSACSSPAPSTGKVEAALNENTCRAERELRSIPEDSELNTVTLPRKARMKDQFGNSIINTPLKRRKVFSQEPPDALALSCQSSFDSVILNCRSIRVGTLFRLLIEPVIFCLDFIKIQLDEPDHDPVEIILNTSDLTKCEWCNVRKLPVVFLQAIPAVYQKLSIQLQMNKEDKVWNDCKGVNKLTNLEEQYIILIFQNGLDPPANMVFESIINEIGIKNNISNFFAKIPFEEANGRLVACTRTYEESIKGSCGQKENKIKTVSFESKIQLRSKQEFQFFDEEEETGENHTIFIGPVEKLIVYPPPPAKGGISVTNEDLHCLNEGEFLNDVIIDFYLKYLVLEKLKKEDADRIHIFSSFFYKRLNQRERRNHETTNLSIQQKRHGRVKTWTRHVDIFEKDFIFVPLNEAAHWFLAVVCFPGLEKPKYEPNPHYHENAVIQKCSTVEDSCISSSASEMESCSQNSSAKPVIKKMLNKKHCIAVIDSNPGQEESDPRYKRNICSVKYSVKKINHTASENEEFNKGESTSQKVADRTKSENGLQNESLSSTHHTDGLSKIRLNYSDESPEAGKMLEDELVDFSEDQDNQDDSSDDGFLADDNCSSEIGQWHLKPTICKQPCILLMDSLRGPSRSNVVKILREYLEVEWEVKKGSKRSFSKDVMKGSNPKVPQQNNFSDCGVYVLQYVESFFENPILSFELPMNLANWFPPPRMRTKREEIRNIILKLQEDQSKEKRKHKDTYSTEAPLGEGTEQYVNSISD

[11] = biological target: T5, Sentrin-specific protease 7 (Homo sapiens, UniProt Q9BQF6); assay: inhibition of human SENP7 cleavage activity – biochemical, luminescence, set 2, SAR follow-up (AID 588600); format: functional
T5 sequence (Q9BQF6 whole entry): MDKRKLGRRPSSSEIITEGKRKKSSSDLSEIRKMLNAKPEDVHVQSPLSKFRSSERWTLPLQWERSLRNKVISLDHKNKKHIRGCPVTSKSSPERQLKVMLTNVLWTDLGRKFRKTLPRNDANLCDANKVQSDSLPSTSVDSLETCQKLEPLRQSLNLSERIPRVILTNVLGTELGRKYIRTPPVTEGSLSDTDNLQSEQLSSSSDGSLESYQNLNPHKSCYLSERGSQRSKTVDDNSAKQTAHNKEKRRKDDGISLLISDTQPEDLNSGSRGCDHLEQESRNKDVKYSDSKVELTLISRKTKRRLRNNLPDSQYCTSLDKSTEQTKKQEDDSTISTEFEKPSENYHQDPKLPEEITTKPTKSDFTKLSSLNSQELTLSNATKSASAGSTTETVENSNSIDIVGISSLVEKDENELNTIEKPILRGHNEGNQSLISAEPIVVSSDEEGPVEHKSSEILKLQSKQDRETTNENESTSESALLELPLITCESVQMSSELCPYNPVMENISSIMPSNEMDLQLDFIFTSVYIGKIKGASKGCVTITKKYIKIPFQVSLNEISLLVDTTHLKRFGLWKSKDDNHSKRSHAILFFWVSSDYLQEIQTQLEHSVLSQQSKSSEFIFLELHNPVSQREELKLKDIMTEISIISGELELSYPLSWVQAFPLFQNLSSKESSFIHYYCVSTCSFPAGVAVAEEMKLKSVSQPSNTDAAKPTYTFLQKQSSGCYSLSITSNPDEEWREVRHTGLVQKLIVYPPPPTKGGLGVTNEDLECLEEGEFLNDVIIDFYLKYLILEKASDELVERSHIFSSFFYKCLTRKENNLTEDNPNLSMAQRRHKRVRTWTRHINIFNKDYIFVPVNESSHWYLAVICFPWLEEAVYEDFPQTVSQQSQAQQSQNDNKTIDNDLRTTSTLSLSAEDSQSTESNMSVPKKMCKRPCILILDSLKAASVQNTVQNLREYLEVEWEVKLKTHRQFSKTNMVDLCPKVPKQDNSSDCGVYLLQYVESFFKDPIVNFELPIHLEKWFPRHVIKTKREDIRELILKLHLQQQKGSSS

SMILES: Cc1ccc(-c2c[n+](Cc3ccc(Cl)c(Cl)c3)c3n2CCC3)cc1
- IC50 [1]: > 109 µM (inactive)
- AC50 [2]: 3.74 µM (active)
- AC50 [3]: 3.4 µM (active)
- EC50 [4]: 43.6 µM (active)
- IC50 [5]: 24.5 µM (inactive)
- IC50 [6]: 43.6 µM (inactive)

SMILES: Cc1nn(S(C)(=O)=O)c2ccccc12
- AC50 [7]: 46.7 µM (active)

- IC50 [8]: > 99 µM (inactive)
- IC50 [10]: > 99 µM (inactive)
- IC50 [11]: > 99 µM (inactive)
SMILES: O=C(Nc1nc2ccc(SC(F)F)cc2s1)c1cn(-c2ccccc2)nc1-c1ccc(Cl)cc1
- IC50 [9]: > 99 µM (inactive)
